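48-hour exposure; five concentrations; linearly interpolated endpoints. GI50 marks 50% less growth. TGI: concentration producing complete growth inhibition.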
Assays:
Experiment in all cases: growth of human tumour cells (NCI), 48 h; in the data active = GI50 below about 0.43 µM; inactive = the rest
786-0 renal = test system: 786-0 renal
A498 renal = test system: A498 renal
A549 NSCLC = test system: A549 NSCLC
ACHN renal = test system: ACHN renal
BT-549 breast = test system: BT-549 breast
CAKI-1 renal = test system: CAKI-1 renal
CCRF-CEM leukemia = test system: CCRF-CEM leukemia
COLO 205 colon = test system: COLO 205 colon
DU-145 prostate = test system: DU-145 prostate
EKVX NSCLC = test system: EKVX NSCLC
HCC-2998 colon = test system: HCC-2998 colon
HCT-116 colon = test system: HCT-116 colon
HCT-15 colon = test system: HCT-15 colon
HL-60(TB) leukemia = test system: HL-60(TB) leukemia
HOP-62 NSCLC = test system: HOP-62 NSCLC
HOP-92 NSCLC = test system: HOP-92 NSCLC
HS 578T breast = test system: HS 578T breast
HT29 colon = test system: HT29 colon
IGROV1 ovarian = test system: IGROV1 ovarian
K-562 leukemia = test system: K-562 leukemia
KM12 colon = test system: KM12 colon
LOX IMVI melanoma = test system: LOX IMVI melanoma
M14 melanoma = test system: M14 melanoma
MCF7 breast = test system: MCF7 breast
MDA-MB-231 breast = test system: MDA-MB-231 breast
MDA-MB-435 = test system: MDA-MB-435
MOLT-4 leukemia = test system: MOLT-4 leukemia
NCI-H226 lung = test system: NCI-H226 lung
NCI-H23 lung = test system: NCI-H23 lung
NCI-H460 lung = test system: NCI-H460 lung
NCI-H522 lung = test system: NCI-H522 lung
NCI/ADR-RES ovarian = test system: NCI/ADR-RES ovarian
OVCAR-4 ovarian = test system: OVCAR-4 ovarian
OVCAR-5 ovarian = test system: OVCAR-5 ovarian
OVCAR-8 ovarian = test system: OVCAR-8 ovarian
PC-3 prostate = test system: PC-3 prostate
RPMI-8226 leukemia = test system: RPMI-8226 leukemia
RXF 393 renal = test system: RXF 393 renal
SF-268 CNS = test system: SF-268 CNS
SF-295 CNS = test system: SF-295 CNS
SF-539 CNS = test system: SF-539 CNS
SK-MEL-2 melanoma = test system: SK-MEL-2 melanoma
SK-MEL-28 melanoma = test system: SK-MEL-28 melanoma
SK-MEL-5 melanoma = test system: SK-MEL-5 melanoma
SK-OV-3 ovarian = test system: SK-OV-3 ovarian
SN12C renal = test system: SN12C renal
SNB-19 CNS = test system: SNB-19 CNS
SNB-75 CNS = test system: SNB-75 CNS
SR leukemia = test system: SR leukemia
SW-620 colon = test system: SW-620 colon
T-47D breast = test system: T-47D breast
TK-10 renal = test system: TK-10 renal
U251 CNS = test system: U251 CNS
UACC-257 melanoma = test system: UACC-257 melanoma
UACC-62 melanoma = test system: UACC-62 melanoma
UO-31 renal = test system: UO-31 renal
MALME-3M melanoma = test system: MALME-3M melanoma

COc1ccc(Cn2cc3c(c2-c2cc(OC)c(OC)c(OC)c2)CCCc2cnoc2-3)cc1N
> 33400 nM: TGI (RPMI-8226 leukemia)
> 32000 nM: TGI (HCC-2998 colon)
3700 nM: TGI (RXF 393 renal)
2140 nM: TGI (COLO 205 colon)
1530 nM: TGI (NCI-H522 lung)
633 nM: TGI (MDA-MB-435)
> 37200 nM: TGI (SK-MEL-5 melanoma)
> 100000 nM: TGI (786-0 renal) | TGI (A549 NSCLC) | TGI (ACHN renal) | TGI (CAKI-1 renal) | TGI (CCRF-CEM leukemia) | TGI (DU-145 prostate) | TGI (EKVX NSCLC) | TGI (HCT-116 colon) | TGI (HCT-15 colon) | TGI (HOP-62 NSCLC) | TGI (HT29 colon) | TGI (IGROV1 ovarian) | TGI (K-562 leukemia) | TGI (KM12 colon) | TGI (LOX IMVI melanoma) | TGI (M14 melanoma) | TGI (MCF7 breast) | TGI (MDA-MB-231 breast) | TGI (MOLT-4 leukemia) | TGI (NCI-H226 lung) | TGI (NCI-H23 lung) | TGI (NCI-H460 lung) | TGI (NCI/ADR-RES ovarian) | TGI (OVCAR-4 ovarian) | TGI (OVCAR-5 ovarian) | TGI (OVCAR-8 ovarian) | TGI (PC-3 prostate) | TGI (SF-268 CNS) | TGI (SF-295 CNS) | TGI (SK-MEL-2 melanoma) | TGI (SK-OV-3 ovarian) | TGI (SN12C renal) | TGI (SNB-19 CNS) | TGI (SR leukemia) | TGI (SW-620 colon) | TGI (T-47D breast) | TGI (TK-10 renal) | TGI (U251 CNS) | TGI (UACC-257 melanoma) | TGI (UACC-62 melanoma) | TGI (UO-31 renal)
6400 nM: TGI (HS 578T breast)
active: GI50 (A498 renal) 407 nM | GI50 (HCT-116 colon) 423 nM | GI50 (HL-60(TB) leukemia) 333 nM | GI50 (HS 578T breast) 404 nM | GI50 (K-562 leukemia) 404 nM | GI50 (MCF7 breast) 392 nM | GI50 (MDA-MB-435) 240 nM | GI50 (NCI-H460 lung) 410 nM | GI50 (NCI-H522 lung) 306 nM | GI50 (RXF 393 renal) 412 nM | GI50 (SF-539 CNS) 426 nM | GI50 (SNB-75 CNS) 384 nM | GI50 (SR leukemia) 405 nM
4820 nM: TGI (HOP-92 NSCLC)
> 67700 nM: TGI (SK-MEL-28 melanoma)
2880 nM: TGI (A498 renal)
2730 nM: TGI (BT-549 breast)
4320 nM: TGI (SF-539 CNS)
inactive: GI50 (786-0 renal) 823 nM | GI50 (A549 NSCLC) 1450 nM | GI50 (ACHN renal) 669 nM | GI50 (BT-549 breast) 436 nM | GI50 (CAKI-1 renal) 491 nM | GI50 (CCRF-CEM leukemia) 430 nM | GI50 (COLO 205 colon) 532 nM | GI50 (DU-145 prostate) 1450 nM | GI50 (EKVX NSCLC) 2430 nM | GI50 (HCC-2998 colon) 1670 nM | GI50 (HCT-15 colon) 543 nM | GI50 (HOP-62 NSCLC) 814 nM | GI50 (HOP-92 NSCLC) 432 nM | GI50 (HT29 colon) 442 nM | GI50 (IGROV1 ovarian) 1040 nM | GI50 (KM12 colon) 632 nM | GI50 (LOX IMVI melanoma) 643 nM | GI50 (M14 melanoma) 501 nM | GI50 (MDA-MB-231 breast) 1580 nM | GI50 (MOLT-4 leukemia) 1110 nM | GI50 (NCI-H226 lung) 1590 nM | GI50 (NCI-H23 lung) 1750 nM | GI50 (NCI/ADR-RES ovarian) 699 nM | GI50 (OVCAR-4 ovarian) 5130 nM | GI50 (OVCAR-5 ovarian) 1840 nM | GI50 (OVCAR-8 ovarian) 2140 nM | GI50 (PC-3 prostate) 463 nM | GI50 (RPMI-8226 leukemia) 935 nM | GI50 (SF-268 CNS) 1140 nM | GI50 (SF-295 CNS) 468 nM | GI50 (SK-MEL-2 melanoma) 651 nM | GI50 (SK-MEL-28 melanoma) 3050 nM | GI50 (SK-MEL-5 melanoma) 1010 nM | GI50 (SK-OV-3 ovarian) 957 nM | GI50 (SN12C renal) 1750 nM | GI50 (SNB-19 CNS) 734 nM | GI50 (SW-620 colon) 449 nM | GI50 (T-47D breast) 590 nM | GI50 (TK-10 renal) 98300 nM | GI50 (U251 CNS) 768 nM | GI50 (UACC-257 melanoma) 578 nM | GI50 (UACC-62 melanoma) 489 nM | GI50 (UO-31 renal) 761 nM
9220 nM: TGI (SNB-75 CNS)

NC(N)=Nc1ccc(Oc2cccc(Nc3ccc(Cl)c(C(F)(F)F)c3)c2)cc1
3450 nM: TGI (M14 melanoma) | TGI (SN12C renal)
4360 nM: TGI (HCT-15 colon)
2940 nM: TGI (OVCAR-5 ovarian)
8960 nM: TGI (CCRF-CEM leukemia)
6510 nM: TGI (K-562 leukemia)
4290 nM: TGI (HL-60(TB) leukemia)
4750 nM: TGI (TK-10 renal)
3560 nM: TGI (NCI-H460 lung)
3680 nM: TGI (MALME-3M melanoma)
3570 nM: TGI (CAKI-1 renal)
3200 nM: TGI (A498 renal)
3000 nM: TGI (PC-3 prostate)
3230 nM: TGI (UACC-62 melanoma)
3210 nM: TGI (NCI-H23 lung) | TGI (SF-295 CNS)
2740 nM: TGI (IGROV1 ovarian)
3050 nM: TGI (RXF 393 renal) | TGI (SF-268 CNS)
3080 nM: TGI (MDA-MB-435)
6670 nM: TGI (SK-OV-3 ovarian)
4620 nM: TGI (HS 578T breast)
3160 nM: TGI (HOP-62 NSCLC) | TGI (SK-MEL-28 melanoma)
34300 nM: TGI (NCI/ADR-RES ovarian)
3240 nM: TGI (HCC-2998 colon)
inactive: GI50 (786-0 renal) 1620 nM | GI50 (A498 renal) 1640 nM | GI50 (ACHN renal) 2790 nM | GI50 (CAKI-1 renal) 1730 nM | GI50 (CCRF-CEM leukemia) 2680 nM | GI50 (DU-145 prostate) 1980 nM | GI50 (HCC-2998 colon) 1750 nM | GI50 (HCT-116 colon) 1620 nM | GI50 (HCT-15 colon) 1920 nM | GI50 (HL-60(TB) leukemia) 1990 nM | GI50 (HOP-62 NSCLC) 1600 nM | GI50 (HOP-92 NSCLC) 1290 nM | GI50 (HS 578T breast) 1930 nM | GI50 (IGROV1 ovarian) 1270 nM | GI50 (K-562 leukemia) 2500 nM | GI50 (LOX IMVI melanoma) 1690 nM | GI50 (M14 melanoma) 1820 nM | GI50 (MALME-3M melanoma) 1720 nM | GI50 (MCF7 breast) 1720 nM | GI50 (MDA-MB-435) 1670 nM | GI50 (MOLT-4 leukemia) 1950 nM | GI50 (NCI-H23 lung) 1710 nM | GI50 (NCI-H460 lung) 1880 nM | GI50 (NCI/ADR-RES ovarian) 14800 nM | GI50 (OVCAR-5 ovarian) 1560 nM | GI50 (PC-3 prostate) 1540 nM | GI50 (RXF 393 renal) 1620 nM | GI50 (SF-268 CNS) 1580 nM | GI50 (SF-295 CNS) 1660 nM | GI50 (SF-539 CNS) 1710 nM | GI50 (SK-MEL-28 melanoma) 1740 nM | GI50 (SK-OV-3 ovarian) 2690 nM | GI50 (SN12C renal) 1690 nM | GI50 (SNB-75 CNS) 1200 nM | GI50 (T-47D breast) 1750 nM | GI50 (TK-10 renal) 1940 nM | GI50 (UACC-62 melanoma) 1750 nM | GI50 (UO-31 renal) 2950 nM
3190 nM: TGI (786-0 renal)
4570 nM: TGI (MOLT-4 leukemia)
11700 nM: TGI (UO-31 renal)
3720 nM: TGI (DU-145 prostate)
3950 nM: TGI (T-47D breast)
3140 nM: TGI (SF-539 CNS)
3130 nM: TGI (HCT-116 colon)
2500 nM: TGI (SNB-75 CNS)
2650 nM: TGI (HOP-92 NSCLC)
3480 nM: TGI (MCF7 breast)
8470 nM: TGI (ACHN renal)
3150 nM: TGI (LOX IMVI melanoma)

From PubChem BioAssay (NCI)
